From patent publication US7683211B2, “Jasmonate derivative compounds pharmaceutical compounds and methods of use thereof” (Ramot at Tel-Aviv University Ltd., priority 2003, dated 2010)
Read-outs that look alike come from different tables or passages of the source.

How the values were obtained:
[1] = tested on: Molt-4 lymphoblastic leukemia cells; experiment: CellTiter 96 MTS cytotoxicity assay, Molt-4 leukemia cells; type: cell-based, human; settings: for IC50: Homo sapiens, 24 h, Molt-4 at 2.5×10^4/ml
Description: (§1) Measurement of reduction in the number of living cells was determined by, the CellTiter 96 Aqueous Non-Radioactive Cell Proliferation Assay (Promega, Madison Wis.). Upon completion of a given experiment, MTS (a tetrazolium compound) at 333 μg/ml+phenazine methosulfate (at 25 μM) was added to each well of the 96-well plate for 1 hour at 37° C. This allowed for development of a color reaction in which dehydrogenases reduce the MTS in metabolically active cells. Since the cells were not washed before the addition of MTS, there were no potentially loosely adherent or non-adherent cells that could have been problematic. Soluble MTS formazan product was measured at a wavelength of 490 nm using a CERES 900 HDI ELISA reader (Bio-Tek Instruments, Inc, Highland Park, Vt.), Optical density is directly proportional to the number of living cells in culture. Cytotoxicity (%) was calculated in the following way: [(OD of control cells−OD of drug-treated cells)/OD of control cells]×100.
(§2) Molt-4 lymphoblastic leukemia cells (at 1.5×10^4/well), 3LL lung carcinoma cells (at 4×10^3/well), B16 melanoma cells (at 4×10^3/well), or HCT116 colon carcinoma cells (at 4×10^3/well) were seeded in 96-well plates and methyl jasmonate (MJ) or MJDB at 0.5 mM were added for 1 day. Optical density representing viable cells was determined by the CellTiter 96 Aqueous Non-Radioactive Cell Proliferation Assay (described above). Cytotoxicity was calculated as the % of control untreated cultures, mean±SD. n=3.
(§3) The optical density that represented viable cells was determined by the CellTiter 96 Aqueous Non-Radioactive Cell Proliferation Assay (Promega, Madison, Wis.), as described above. Cytotoxicity was calculated as % of control untreated cultures, mean±SE. n=3.
Biological assays were performed with a 1:1 mixture of the aforementioned tetra bromo isomers. More specifically, Molt-4 leukemic cells (at 2.5×10^4/ml) were incubated for one day in 96-well plates in the presence of different concentrations of either MJ or MJTB. The optical density that represented viable cells was determined by the CellTiter 96 Aqueous Non-Radioactive Cell Proliferation Assay (Promega, Madison, Wis.) as described above. Cytotoxicity is calculated as % of control untreated cultures, mean±SE. n=3.
Molt-4 (leukemia) cells (at 2.5×10^4/ml), and normal peripheral blood lymphocytes (PBL, at 2×10^5/ml) were incubated in 96-well plates for one day in the presence of different concentrations of MJTB. PBL were pre-incubated with 0.8 μg/ml phytohaemagglutinin +5 ng/ml TPA for 48 hours, to induce entrance into the cell cycle. These cells proliferate and therefore are similar in that respect to cancer cells, making the comparison more valid. The optical density that represented viable cells was determined by the CellTiter 96 Aqueous Non-Radioactive Cell Proliferation Assay (Promega, Madison, Wis.), as described above.
Molt4 leukemic cells (at 1.5×10^4/ml) were incubated for 1 day in the presence of different concentrations of halogenated derivatives of MJ. Specifically, these derivatives were MJS72f5 (one of R6 and R7 is iodo and the other is methoxy), MJS99 (R6 and R7 are each fluoro) and NJ-63 (one of R6 and R7 is bromo and the other is hydroxyl). The optical density that represented viable cells was determined by the CellTiter 96 Aqueous Non-Radioactive Cell Proliferation Assay (Promega, Madison, Wis.), described above. […] Another derivative.

[2] = tested on: lymphomas in mice; settings: from U.S. Pat. No. 6,469,061; cited from earlier work
[3] = tested on: ATP levels in Molt-4 leukemia cells; experiment: ATP determination assay (CellTiter-Glo) in Molt-4 cells; type: cell-based, human; settings: MJDB at 1 mM (MJ at 3 mM) for 10, 30 or 60 minutes at 37° C., FIG. 4
Description: An ATP determination assay was used to assess the effect of MJDB on ATP levels in cancer cells. More specifically, Molt-4 cells (at 1×10^4/well) were seeded in 96-well opaque-walled plates and MJ at 3 mM or MJDB at 1 mM were added for 10, 30 or 60 minutes at 37° C. Untreated cells incubated in culture medium were used as control. ATT levels were determined by the CellTiter-Glo™ Luminescent Cell Viability Assay; an assay in which cells produce a lumineascence signal that is equivalent to the ATP concentration in the cell. ATP depletion is calculated as % of control untreated cultures, mean±SD. n=3.

[4] = tested on: peripheral blood lymphocytes from healthy donors; experiment: CellTiter 96 MTS cytotoxicity assay, lymphocytes from healthy donors; type: cell-based, human; settings: 1 day, several concentrations, FIG. 1
Description: as §1
(§4) In order to test the toxicity of MJDB towards human leukemia cells, peripheral blood lymphocytes from chronic lymphocytic leukemia (CLL) patients were harvested. […] The optical density that represented viable cells was determined by the CellTiter 96 Aqueous Non-Radioactive Cell Proliferation Assay (Promega, Madison, Wis.); an assay in which viable cells produce a colored product, as described above. […]

[5] = tested on: 3LL lung carcinoma cells; experiment: CellTiter 96 MTS cytotoxicity assay, 3LL lung carcinoma cells; type: cell-based, mouse; settings: 0.5 mM, 1 day, FIG. 2, P<0.05
Description: as §1
as §2, with “Optical density representing viable cells was determined by the CellTiter 96 Aqueous Non-Radioactive Cell Proliferation Assay (described above).” left out

[6] = tested on: B16 melanoma cells; experiment: CellTiter 96 MTS cytotoxicity assay, B16 melanoma cells; type: cell-based
Description: as §1
as §2, with “Optical density representing viable cells was determined by the CellTiter 96 Aqueous Non-Radioactive Cell Proliferation Assay (described above).” left out, “n=3. […]” for “n=3.”

[7] = tested on: HCT116 colon carcinoma cells; experiment: CellTiter 96 MTS cytotoxicity assay, HCT116 colon carcinoma cells; type: cell-based, human; settings: 0.5 mM, 1 day, FIG. 2, P<0.05
Description: as §1
as §2, with “Optical density representing viable cells was determined by the CellTiter 96 Aqueous Non-Radioactive Cell Proliferation Assay (described above).” left out

[8] = tested on: 29M4.1 B lymphoma cells expressing wild type p53; experiment: CellTiter 96 MTS cytotoxicity assay, 29M4.1 B lymphoma clone with wild type p53; type: cell-based; settings: 1 day, several concentrations, FIG. 3
Description: as §1
(§5) A system of two B lymphoma clones originating from the same cell line (29M4.1) was used. These clones differed solely in the expression of wild type versus mutant p53. […] The optical density that represented viable cells was determined by the CellTiter 96 Aqueous Non-Radioactive Cell Proliferation Assay (Promega, Madison, Wis.).

[9] = tested on: 29M4.1 B lymphoma cells expressing mutant p53; experiment: CellTiter 96 MTS cytotoxicity assay, 29M4.1 B lymphoma clone with mutant p53; type: cell-based; settings: 1 day, several concentrations, FIG. 3
Description: as §1, §5

[10] = tested on: peripheral blood lymphocytes from chronic lymphocytic leukemia (CLL) patients; experiment: CellTiter 96 MTS cytotoxicity assay, CLL patient lymphocytes; type: cell-based, human; settings: 1 day, several concentrations, FIG. 1; P<0.05 versus healthy donors
Description: as §1, §4

[11] = CellTiter 96 MTS cytotoxicity assay, stimulated normal PBL; type: cell-based; settings: PBL at 2×10^5/ml, pre-incubated with phytohaemagglutinin + TPA for 48 hours, one day with compound
Description: as §1
(§6) Molt-4 (leukemia) cells (at 2.5×10^4/ml), and normal peripheral blood lymphocytes (PBL, at 2×10^5/ml) were incubated in 96-well plates for one day in the presence of different concentrations of MJTB. […] The optical density that represented viable cells was determined by the CellTiter 96 Aqueous Non-Radioactive Cell Proliferation Assay (Promega, Madison, Wis.), as described above.

[12] = tested on: normal peripheral blood lymphocytes (PBL); experiment: as above; type: cell-based; settings: PBL versus Molt-4
Description: as §1, §6

[13] = tested on: B16MDR (melanoma exhibiting multidrug resistance) cells; experiment: CellTiter 96 MTS cytotoxicity assay, B16MDR melanoma cells; type: cell-based, human; settings: Mus musculus, 24 h; B16MDR at 2×10^3/ml, one day incubation, MTS readout; read-out: IC50 (cytotoxicity), B16 MDR
Description: as §1, §3

[14] = tested on: D122 (lung carcinoma) cells; experiment: CellTiter 96 MTS cytotoxicity assay, D122 lung carcinoma cells; type: cell-based, human; settings: Mus musculus, 24 h; D122 at 5×10^3/ml, one day incubation, MTS readout
Description: as §1, §3

[15] = one day, MJTB as 1:1 mixture of tetra bromo isomers (Example 6), read-out: IC50 (concentration exhibiting 50% cytotoxicity), Molt-4, MJTB versus MJ

SMILES	IC50 [1, 15] [µM]	prevention of development of lymphomas in mice [2]	ATP depletion [3]	cytotoxicity towards lymphocytes from healthy donors [4]	cytotoxic effect compared to methyl jasmonate, 3LL [5]	cytotoxic effect compared to methyl jasmonate, Molt-4 ([1]; 0.5 mM, 1 day, FIG. 2, P<0.05)	cytotoxic effect compared to methyl jasmonate, B16 ([6]; 0.5 mM, 1 day, FIG. 2, P<0.05)	cytotoxic effect compared to methyl jasmonate, HCT116 [7]	cytotoxicity towards B lymphoma cells expressing wild type p53 [8]	cytotoxicity towards B lymphoma cells expressing mutant p53 [9]	cytotoxicity towards lymphocytes from CLL patients [10]	IC50 ([1]; one day incubation, MTS readout (Example 5), read-out: IC50 (cytotoxicity), Molt-4) [µM]	IC50 of MJTB smaller than that of MJ (fold) ([1]; Molt-4 cells, one day)	IC50 ([6]; 24 h, B16 at 2×10^3/ml, one day incubation, MTS readout) [µM]	IC50 at 1 day [11] [µM]	IC50 for normal peripheral blood lymphocytes relative to leukemic cells [12]	IC50 [13] [µM]	IC50 [14] [µM]
CC/C=C\CC1C(=O)CCC1CC(=O)OC (stereo not shown) [MJ, methyl jasmonate, reference compound]	500	effective in preventing development of lymphomas in mice	–	–	–	–	–	–	–	–	–	–	–	–	–	–	–	–
CCC(Br)C(Br)CC1C(=O)CCC1CC(=O)OC (stereo not shown) [MJDB, methyl jasmonate di-bromide]	–	–	rapid and strong ATP depletion	cytotoxicity is minimal	highly superior in its cytotoxic effect	highly superior in its cytotoxic effect	highly superior in its cytotoxic effect	highly superior in its cytotoxic effect	equally cytotoxic	equally cytotoxic	highly and selectively cytotoxic	–	–	–	–	–	–	–
CCC(Br)C(Br)C[C@@]1(Br)C(=O)[C@@H](Br)CC1CC(=O)OC (stereo partly shown) [MJTB, methyl jasmonate tetra-bromide]	8	–	–	–	–	–	–	–	–	–	–	8	about 60 times	80	250	larger than that for leukemic cells by more than an order of magnitude	80	50
